Measured values published in the NIST ThermoML archive (doi:10.1016/j.jct.2015.08.031).
“And” between values parts separate entries of the source, which are not always exact repeats. Equal entries are not always repeated.

Assay: molar heat capacity at constant pressure
Conditions: 101.33 kPa, Crystal, relaxation calorimetry

O[C@H]1[C@H](O)[C@H](O)OC[C@H]1O [β-D-arabinopyranose]
Conditions	molar heat capacity at constant pressure
0.5 K	0.0007532 J/K/mol
1 K	0.00191 J/K/mol
1.5 K	0.0039 J/K/mol
1.93 K	0.00664 J/K/mol
2 K	0.007206 J/K/mol
2.03 K	0.00744 J/K/mol
2.14 K	0.00853 J/K/mol
2.26 K	0.00959 J/K/mol
2.38 K	0.01108 J/K/mol
2.5 K	0.01239 J/K/mol
2.51 K	0.01247 J/K/mol
2.64 K	0.01457 J/K/mol
2.78 K	0.01653 J/K/mol
2.94 K	0.01919 J/K/mol
3 K	0.02013 J/K/mol
3.1 K	0.02195 J/K/mol
3.27 K	0.02605 J/K/mol
3.43 K	0.02956 J/K/mol
3.5 K	0.03122 J/K/mol
3.63 K	0.03481 J/K/mol
3.81 K	0.03999 J/K/mol
4 K	0.04664 J/K/mol
4.03 K	0.04762 J/K/mol
4.23 K	0.05477 J/K/mol
4.47 K	0.06546 J/K/mol
4.5 K	0.06755 J/K/mol
4.7 K	0.07779 J/K/mol
4.96 K	0.09273 J/K/mol
5 K	0.09528 J/K/mol
5.22 K	0.109 J/K/mol
5.5 K	0.1311 J/K/mol and 0.1314 J/K/mol
5.79 K	0.157 J/K/mol
6 K	0.1776 J/K/mol
6.1 K	0.19 J/K/mol
6.42 K	0.2256 J/K/mol
6.5 K	0.2359 J/K/mol
6.77 K	0.2719 J/K/mol
7 K	0.308 J/K/mol
7.12 K	0.328 J/K/mol
7.5 K	0.396 J/K/mol
7.51 K	0.3961 J/K/mol
7.9 K	0.4794 J/K/mol
8 K	0.5015 J/K/mol
8.33 K	0.5808 J/K/mol
8.5 K	0.6256 J/K/mol
8.76 K	0.6949 J/K/mol
9 K	0.7669 J/K/mol
9.24 K	0.8445 J/K/mol
9.5 K	0.9266 J/K/mol
9.72 K	1.004 J/K/mol
10 K	1.105 J/K/mol
10.23 K	1.191 J/K/mol
10.77 K	1.405 J/K/mol
11 K	1.517 J/K/mol
11.32 K	1.667 J/K/mol
11.92 K	1.965 J/K/mol
12 K	2 J/K/mol
12.56 K	2.311 J/K/mol
13 K	2.549 J/K/mol
13.23 K	2.685 J/K/mol
13.94 K	3.128 J/K/mol
14 K	3.158 J/K/mol
14.68 K	3.61 J/K/mol
15 K	3.821 J/K/mol
15.46 K	4.149 J/K/mol
16 K	4.53 J/K/mol
16.31 K	4.747 J/K/mol
17 K	5.279 J/K/mol
17.15 K	5.4 J/K/mol
18 K	6.059 J/K/mol
18.08 K	6.128 J/K/mol
19 K	6.866 J/K/mol
19.05 K	6.89 J/K/mol
20 K	7.693 J/K/mol
20.08 K	7.769 J/K/mol
21.14 K	8.663 J/K/mol
22.3 K	9.532 J/K/mol
23.47 K	10.62 J/K/mol
24.74 K	11.68 J/K/mol
25 K	11.98 J/K/mol
26.04 K	12.89 J/K/mol
27.46 K	14.03 J/K/mol
28.89 K	15.45 J/K/mol
30 K	16.33 J/K/mol
30.43 K	16.8 J/K/mol
32.08 K	18.29 J/K/mol
33.81 K	19.73 J/K/mol
35 K	20.68 J/K/mol
35.6 K	21.31 J/K/mol
37.52 K	22.92 J/K/mol
39.51 K	24.55 J/K/mol
40 K	25.02 J/K/mol
41.64 K	26.31 J/K/mol
43.83 K	28.17 J/K/mol
45 K	29.23 J/K/mol
46.19 K	30 J/K/mol
48.63 K	31.87 J/K/mol
50 K	33.14 J/K/mol
51.26 K	34.52 J/K/mol
53.96 K	35.9 J/K/mol
55 K	36.8 J/K/mol
56.88 K	38.09 J/K/mol
59.89 K	40.36 J/K/mol
60 K	40.35 J/K/mol
63.13 K	42.59 J/K/mol
65 K	43.88 J/K/mol
66.46 K	45.03 J/K/mol
70 K	47.36 J/K/mol
70.07 K	47.59 J/K/mol
73.76 K	50.07 J/K/mol
75 K	50.8 J/K/mol
77.78 K	52.92 J/K/mol
80 K	54.2 J/K/mol
81.9 K	55.02 J/K/mol
85 K	57.56 J/K/mol
86.34 K	58.01 J/K/mol
90 K	60.88 J/K/mol
90.84 K	61.56 J/K/mol
95 K	64.18 J/K/mol
95.82 K	64.72 J/K/mol
100 K	67.44 J/K/mol
100.82 K	67.63 J/K/mol
105.87 K	71.22 J/K/mol
110 K	73.87 J/K/mol
110.95 K	74.61 J/K/mol
116.03 K	77.25 J/K/mol
120 K	80.2 J/K/mol
121.05 K	81.12 J/K/mol
126.07 K	84.2 J/K/mol
130 K	86.45 J/K/mol
131.11 K	87.48 J/K/mol
136.18 K	90.66 J/K/mol
140 K	92.63 J/K/mol
141.2 K	93.47 J/K/mol
146.26 K	96.4 J/K/mol
150 K	98.75 J/K/mol
151.33 K	99.46 J/K/mol
156.34 K	102.71 J/K/mol
160 K	104.83 J/K/mol
161.42 K	105.84 J/K/mol
166.44 K	108.82 J/K/mol
170 K	110.86 J/K/mol
171.52 K	111.71 J/K/mol
176.58 K	114.66 J/K/mol
180 K	116.86 J/K/mol
181.62 K	117.85 J/K/mol
186.66 K	121.01 J/K/mol
190 K	122.82 J/K/mol
191.69 K	123.97 J/K/mol
196.75 K	126.57 J/K/mol
200 K	128.77 J/K/mol
201.79 K	129.39 J/K/mol
206.8 K	132.11 J/K/mol
210 K	134.69 J/K/mol
211.88 K	135.86 J/K/mol
216.86 K	138.45 J/K/mol
220 K	140.59 J/K/mol
221.99 K	141.54 J/K/mol
226.98 K	144.9 J/K/mol
230 K	146.48 J/K/mol
232.03 K	147.66 J/K/mol
237.15 K	150.47 J/K/mol
240 K	152.35 J/K/mol
242.11 K	153.65 J/K/mol
247.24 K	156.9 J/K/mol
250 K	158.21 J/K/mol
252.28 K	159.78 J/K/mol
257.34 K	162.75 J/K/mol
260 K	164.06 J/K/mol
262.36 K	165.45 J/K/mol
267.38 K	168.46 J/K/mol
270 K	169.9 J/K/mol
272.39 K	171.4 J/K/mol
273.15 K	171.74 J/K/mol
277.53 K	174.86 J/K/mol
280 K	175.73 J/K/mol
282.55 K	177.62 J/K/mol
287.61 K	180.21 J/K/mol
290 K	181.55 J/K/mol
292.62 K	182.92 J/K/mol
297.64 K	185.3 J/K/mol
298.15 K	186.29 J/K/mol
300 K	187.36 J/K/mol
302.65 K	188.73 J/K/mol
